Common to all, as to assay type: functional
Details in all cases: 168 h

For one assay, the system named is Trichophyton soudanense. The assay can be described thus: Antifungal activity against Trichophyton soudanense after 7 days by broth microdilution test. Background: Broth dilution looks for growth in wells or tubes with falling amounts of substance.
Another assay has as its system Trichophyton tonsurans. The assay can be described thus: Antifungal activity against Trichophyton tonsurans after 7 days by broth microdilution test.
For the next assay, the system named is Trichophyton. Description: Antifungal activity against Trichophyton sp. after 7 days by broth microdilution test.
In a further assay the test system is Nannizzia gypsea. The assay can be described thus: Antifungal activity against Microsporum gypseum after 7 days by broth microdilution test.
The test system of another assay is Microsporum. Description: Antifungal activity against Microsporum sp. after 7 days by broth microdilution test.
Assay [1] deals with Trichophyton mentagrophytes. Description: Antifungal activity against Trichophyton mentagrophytes after 7 days by broth microdilution test.
The test system of a further assay is Trichophyton rubrum. The assay can be described thus: Antifungal activity against Trichophyton rubrum after 7 days by broth microdilution test.
The next assay concerns Trichophyton violaceum. The assay can be described thus: Antifungal activity against Trichophyton violaceum after 7 days by broth microdilution test.
A further assay concerns Epidermophyton floccosum. Description: Antifungal activity against Epidermophyton floccosum after 7 days by broth microdilution test.
The next assay relates to Candida. Description: Antifungal activity against Candida after 7 days by broth microdilution test.
Assay [2] is described as follows: Antifungal activity against Cryptococcus after 7 days by broth microdilution test.
The test system of the next assay is Paraphyton cookei. Description: Antifungal activity against Microsporum cookei after 7 days by broth microdilution test.
Another assay concerns Microsporum canis. The assay can be described thus: Antifungal activity against Microsporum canis after 7 days by broth microdilution test.

Structures are written as SMILES. Converted amounts (≈) assume the structure as drawn.

Usually MIC stands for the least concentration at which growth counts as inhibited. High values mean a less susceptible organism, low ones a more susceptible organism. In general, MIC50 refers to an inhibitory concentration at the 50% level, which refers to growth in some studies and to a panel of isolates in others. A higher MIC50 goes with lower susceptibility. As usually defined, the MIC90 is the lowest concentration that inhibits either 90% of growth or 90% of the strains tested, depending on the study. Lower therefore signals greater potency.

`CCCCCc1cc[n+](CCCCCCCCCCCC[n+]2ccc(CCCCC)cc2)cc1.[Cl-].[Cl-]`: the MIC against Trichophyton soudanense turned out to be 14.5 µg/mL; with Trichophyton tonsurans it was 2.8 µg/mL; in the assay with Trichophyton it was 6.98 µg/mL; against Nannizzia gypsea it was 2.41 µg/mL; in the assay with Microsporum it was 2.24 µg/mL; in assay [1], 9.01 µg/mL. In addition, the MIC is 10.4 µg/mL in the assay on Trichophyton rubrum; 8.96 µg/mL against Trichophyton violaceum; 7.63 µg/mL in the assay on Epidermophyton floccosum; 0.6 µg/mL with Candida; 0.6 µg/mL in [2]; 1.06 µg/mL with Paraphyton cookei. Further, the minimum inhibitory concentration (MIC) in the assay with Microsporum canis is 2.95 µg/mL. In addition, the MIC50 against Trichophyton tonsurans worked out at 2 µg/mL; in the assay with Trichophyton, 8 µg/mL; against Microsporum, 2 µg/mL; in assay [1], 8 µg/mL; against Trichophyton rubrum, 8 µg/mL. The MIC90 against Trichophyton tonsurans amounted to 8 µg/mL; with Trichophyton, 16 µg/mL; with Microsporum, 4 µg/mL; in assay [1], 16 µg/mL; in the assay on Trichophyton rubrum it was 16 µg/mL.

For the molecule `CN(Cc1ccc(C(C)(C)C)cc1)Cc1cccc2ccccc12` [BUTENAFINE], the MIC against Trichophyton soudanense stood at 0.059 µg/mL (≈ 0.186 µM); against Trichophyton tonsurans, 0.04 µg/mL (≈ 0.126 µM); in the assay with Trichophyton, 0.074 µg/mL (≈ 0.233 µM); against Nannizzia gypsea it was 0.084 µg/mL (≈ 0.265 µM); with Microsporum, 0.106 µg/mL (≈ 0.334 µM); in assay [1], 0.063 µg/mL (≈ 0.198 µM). Further, the MIC is 0.05 µg/mL (≈ 0.157 µM) in the assay on Trichophyton rubrum; 0.063 µg/mL (≈ 0.198 µM) in the assay on Trichophyton violaceum; 0.081 µg/mL (≈ 0.255 µM) against Epidermophyton floccosum; 0.153 µg/mL (≈ 0.482 µM) with Paraphyton cookei; 0.101 µg/mL (≈ 0.318 µM) with Microsporum canis. The MIC50 with Trichophyton tonsurans was 0.031 µg/mL (≈ 0.0976 µM); against Trichophyton, 0.063 µg/mL (≈ 0.198 µM); against Microsporum it was 0.125 µg/mL (≈ 0.394 µM); in assay [1], 0.063 µg/mL (≈ 0.198 µM); against Trichophyton rubrum, 0.063 µg/mL (≈ 0.198 µM). For the same molecule, the MIC90 in the assay on Trichophyton tonsurans was 0.063 µg/mL (≈ 0.198 µM); with Trichophyton, 0.125 µg/mL (≈ 0.394 µM); in the assay on Microsporum, 0.125 µg/mL (≈ 0.394 µM); in assay [1] it was 0.125 µg/mL (≈ 0.394 µM); against Trichophyton rubrum it was 0.125 µg/mL (≈ 0.394 µM).

On to `CCC(C)n1ncn(-c2ccc(N3CCN(c4ccc(OCC5COC(Cn6cncn6)(c6ccc(Cl)cc6Cl)O5)cc4)CC3)cc2)c1=O` (stereo not given) [ITRACONAZOLE], for which the minimum inhibitory concentration (MIC) in the assay with Trichophyton soudanense worked out at 3.42 µg/mL (≈ 4.85 µM); in the assay on Trichophyton tonsurans, 1.65 µg/mL (≈ 2.33 µM); against Trichophyton, 1.99 µg/mL (≈ 2.82 µM); against Nannizzia gypsea, 3.68 µg/mL (≈ 5.22 µM); with Microsporum, 2.63 µg/mL (≈ 3.73 µM); in assay [1] it was 1.68 µg/mL (≈ 2.38 µM). The MIC in the assay with Trichophyton rubrum came out at 1.96 µg/mL (≈ 2.77 µM); against Trichophyton violaceum, 3.3 µg/mL (≈ 4.68 µM); with Epidermophyton floccosum, 0.226 µg/mL (≈ 0.32 µM); with Paraphyton cookei, 6 µg/mL (≈ 8.5 µM); against Microsporum canis, 1.23 µg/mL (≈ 1.74 µM). Further, the MIC50 against Trichophyton tonsurans came to 2 µg/mL (≈ 2.83 µM); against Trichophyton, 2 µg/mL (≈ 2.83 µM); with Microsporum it was 4 µg/mL (≈ 5.67 µM); in assay [1], 2 µg/mL (≈ 2.83 µM); against Trichophyton rubrum it was 2 µg/mL (≈ 2.83 µM). For the same molecule, the MIC90 with Trichophyton tonsurans worked out at 4 µg/mL (≈ 5.67 µM); with Trichophyton it was 4 µg/mL (≈ 5.67 µM); in the assay on Microsporum it was 8 µg/mL (≈ 11.3 µM); in assay [1] it was 4 µg/mL (≈ 5.67 µM); against Trichophyton rubrum, 4 µg/mL (≈ 5.67 µM).

Turning to `CCCCCCCCCCCCCCCCOP(=O)([O-])OCC[N+](C)(C)C` [MILTEFOSINE], the minimal inhibitory concentration (MIC) with Trichophyton soudanense came out at 0.52 µg/mL (≈ 1.28 µM); against Trichophyton tonsurans, 0.398 µg/mL (≈ 0.977 µM); against Trichophyton, 0.652 µg/mL (≈ 1.6 µM); in the assay on Nannizzia gypsea, 0.842 µg/mL (≈ 2.07 µM); in the assay on Microsporum, 0.75 µg/mL (≈ 1.84 µM); in [1] it was 1.13 µg/mL (≈ 2.78 µM). Further, the minimal inhibitory concentration (MIC) worked out at 0.547 µg/mL (≈ 1.34 µM) against Trichophyton rubrum; 0.328 µg/mL (≈ 0.805 µM) in the assay on Trichophyton violaceum; 0.548 µg/mL (≈ 1.34 µM) in the assay on Epidermophyton floccosum; 0.866 µg/mL (≈ 2.12 µM) in the assay on Paraphyton cookei; 0.555 µg/mL (≈ 1.36 µM) against Microsporum canis. The MIC50 in the assay on Trichophyton tonsurans was found to be 0.25 µg/mL (≈ 0.613 µM); against Trichophyton, 0.5 µg/mL (≈ 1.23 µM); against Microsporum, 1 µg/mL (≈ 2.45 µM); in assay [1] it was 1 µg/mL (≈ 2.45 µM); against Trichophyton rubrum it was 0.5 µg/mL (≈ 1.23 µM). The MIC90 in the assay with Trichophyton tonsurans was determined as 1 µg/mL (≈ 2.45 µM); against Trichophyton it was 1 µg/mL (≈ 2.45 µM); in the assay on Microsporum it was 1 µg/mL (≈ 2.45 µM); in [1], 2 µg/mL (≈ 4.91 µM); with Trichophyton rubrum, 1 µg/mL (≈ 2.45 µM).

As for `CN(C/C=C/C#CC(C)(C)C)Cc1cccc2ccccc12` [TERBINAFINE], the MIC with Trichophyton soudanense was found to be 0.039 µg/mL (≈ 0.134 µM); in the assay with Trichophyton tonsurans, 0.03 µg/mL (≈ 0.103 µM); against Trichophyton, 0.044 µg/mL (≈ 0.151 µM); with Nannizzia gypsea, 0.065 µg/mL (≈ 0.223 µM); with Microsporum it was 0.075 µg/mL (≈ 0.257 µM); in assay [1] it was 0.03 µg/mL (≈ 0.103 µM). In addition, the minimal inhibitory concentration (MIC) came out at 0.035 µg/mL (≈ 0.12 µM) in the assay on Trichophyton rubrum; 0.063 µg/mL (≈ 0.216 µM) with Trichophyton violaceum; 0.059 µg/mL (≈ 0.202 µM) against Epidermophyton floccosum; 0.077 µg/mL (≈ 0.264 µM) against Paraphyton cookei; 0.083 µg/mL (≈ 0.285 µM) in the assay on Microsporum canis. Further, the MIC50 with Trichophyton is 0.031 µg/mL (≈ 0.106 µM); in the assay with Microsporum it was 0.063 µg/mL (≈ 0.216 µM); in [1] it was 0.031 µg/mL (≈ 0.106 µM); in the assay on Trichophyton rubrum, 0.031 µg/mL (≈ 0.106 µM). Besides, the MIC90 stood at 0.063 µg/mL (≈ 0.216 µM) in the assay on Trichophyton, 0.125 µg/mL (≈ 0.429 µM) with Microsporum, 0.063 µg/mL (≈ 0.216 µM) in assay [1] and 0.063 µg/mL (≈ 0.216 µM) with Trichophyton rubrum.

The values are drawn from ChEMBL document CHEMBL1143819, “In vitro activities of miltefosine and two novel antifungal biscationic salts against a panel of 77 dermatophytes” (2007).
